Measurements published in patent US6399568B1, “Cyclic tetrapeptide derivatives and medicinal use thereof” (Japan Energy Corporation, priority 1997, dated 2002).
Non-standard residues stand in square brackets, D forms with d. Residues, ends and D or L forms follow the SMILES beside them. *: point of attachment. Asu = N[C@@H](CCCCCC(=O)O)C(=O)O; NHOH = ON*

Columns and labels:
[1] = system: colon cancer Colon26 cell line; experiment: Cell proliferation inhibition (72 hours); type: cell-based, mouse; settings: read-out: 50% proliferation inhibiting concentration Colon 26 (nM) mean
Description: (§1) In order to verify the action of the cyclic tetrapeptide derivative according to the present invention in inhibiting cell proliferation in cancerized cells, the action on the proliferation of the aforementioned B16/BL6 cells was investigated. The evaluation of cell proliferation rates was done utilizing a commercially available measuring kit, specifically, from Promega under the trade name CellTiter 96 Aqueous Non-Radioactive Proliferation Assay Kit. In the measuring kit, the amount of products through reduction of a reagent tetrazolium compound (3-(4,5-dimethylthiazol-2-yl)-5-(3-carboxymethoxyphenyl)-2-(4-sulfophenyl)-2H-tetrazolium, inner salt; MTS) by viable animal cells is determined by detecting spectrophotometrically the color generated from the products. Since the amount of products is proportional to the amount of viable cells, this kit is utilized to evaluate the amount of viable cells.
(§2) According to the procedure of Test Example 1, B16/BL6 cells are inoculated in a 96 well microplate and cultured for 24 hours. Then, 10 μl of a solution of the source solution of a compound to be tested which has been diluted to a predetermined amount per well is added. Thereafter, culture is continued for additional 48 hours and 20 μl of a reagent solution in the aforementioned CellTiter 96 Aqueous Non-Radioactive Proliferation Assay Kit is then added. After incubation is continued at 37° C. for 1 hour, the amount of color generation is measured as an absorbance at 490 n musing a microplate reader.
(§3) The amount of cell proliferation of a group to which a compound to be tested is added is expressed in a relative value as compared to the standard cell proliferation (100%) in a control group to which no compound to be tested is added. For each compound tested, the amounts of cell proliferation were measured at different concentrations of addition and the dependence of the quantitative cell proliferation on the concentration of addition was investigated. From the results, a concentration of addition at which the amount of cell proliferation was inhibited by 50% relative to the amount of cell proliferation in the control group without addition was determined.
(§4) The test method was in accordance with the above-mentioned procedure, except that the period of incubation after the addition of a compound was 72 hours.
(§5) As illustrative examples, results are shown for an evaluation using mouse malignant melanoma B16/BL6 and B16 cell lines; leukemia L1210 cell line, colon cancer Colon26 cell line, and liver cancer MH134 cell line as cancer cells. For the cell proliferation inhibiting action of each compound tested for these cancer cells, 50% proliferation inhibiting concentrations are shown in Table 4.

[2] = system: liver cancer MH134 cell line; experiment: Cell proliferation inhibition (72 hours); type: cell-based, mouse; settings: read-out: 50% proliferation inhibiting concentration MH134 (nM) mean
Description: as §1, §2, §3, §4, §5

leukemia L1210 cell line = experiment: Cell proliferation inhibition (72 hours); type: cell-based, mouse; settings: read-out: 50% proliferation inhibiting concentration L1210 (nM) mean
Description: as §1, §2, §3, §4, §5

histone deacetylase = experiment: Histone deacetylase enzyme inhibiting activity, synthetic peptide substrate; type: biochemical, mouse; settings: enzyme from B16/BL6 cells; [3H]acetylated histone H4 peptide; 37° C. 3 hours
Outline: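 Crude HDAC was partially purified from B16/BL6 cell nuclei by ammonium sulfate precipitation and gel filtration. Enzyme was incubated with [^3H]acetylated histone H4 N-terminal peptide and compound at 37° C. for 3 h. Released [^3H]acetate was ethyl acetate-extracted and counted, giving IC50 versus the no-compound control.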

Meth A = experiment: In vivo anti-cancer activity in mouse (solid tumor system)
Protocol: (§6) Three mouse cancers Colon26, Meth A and B16 were used to evaluate in vivo anti-cancer activity of the cyclic tetrapeptide compounds according to the present invention in a solid tumor system. The cancer cells were cultured in a conventional manner, suspended in PBS and intradermally transplanted into a mouse ventral portion (10^5). The mouse used was CDF1, Balb/c or BDF1 (male, 7 weeks in age) for Colon 26, Meth A or B16, respectively. On day-4, 7 and 10 for Colon 26, or on day-7, 10, 13 and 16 for Meth A and B16 (day-0 being the day of cancer transplantation), a given amount of solution containing a predetermined amount of a compound to be tested was administered into the tail vein (10, 3 and 1 mg/kg; 2 ml/kg). In this example, the solution for administration used was PBS suspension (as neutralized with NaOH). On day-14 for Colon26 and on day-21 for Meth A and B16, the size of tumor (shorter and longer diameters) was measured. The tumor weight was estimated from the value obtained by calculation from the equation: ½×longer diameter×shorter diameter^2. Anti-tumor effects were based on the estimated tumor weight used as a measure and a tumor weight was estimated for a control group to which an equal amount of a drug-free solution was added; % inhibition was determined on the basis of the difference between the estimated tumor weights for the treated and control groups.

B16 = experiment: as above; settings: measured day-21, estimated from diameters
Protocol: as §6

Colon 26 = experiment: as above; settings: measured day-14, estimated from diameters
Protocol: as §6

SMILES: CC[C@H](C)[C@@H]1NC(=O)[C@@H](Cc2ccc(OC)cc2)NC(=O)[C@H](CCCCCC(=O)NO)NC(=O)[C@H]2CCCN2C1=O [HDA-31, cyclo(-L-Asu(NHOH)-D-Tyr(Me)-L-Ile-D-Pro-)] (cyclo([Asu](NHOH)[dY](Me)I[dP]))
- IC50 [1]: 33 nM
- IC50 [2]: 50.7 nM
- IC50 (leukemia L1210 cell line): 18.8 nM
- IC50 (histone deacetylase): 3.32 nM
- tumor weight (Meth A; 1 mg/kg tail vein on day-7, 10, 13 and 16, measured day-21, estimated from diameters): 2100 ± 570 mg
- tumor weight (Meth A; 3 mg/kg tail vein on day-7, 10, 13 and 16, measured day-21, estimated from diameters): 1230 ± 500 mg
- tumor weight (Meth A; 10 mg/kg tail vein on day-7, 10, 13 and 16, measured day-21, estimated from diameters): 1470 ± 500 mg
- tumor weight (B16; B16, 1 mg/kg tail vein on day-7, 10, 13 and 16): 258 ± 184 mg
- tumor weight (B16; B16, 3 mg/kg tail vein on day-7, 10, 13 and 16): 280 ± 152 mg
- tumor weight (B16; B16, 10 mg/kg tail vein on day-7, 10, 13 and 16): 120 ± 112 mg
- tumor weight (Colon 26; Colon 26, 1 mg/kg tail vein on day-4, 7 and 10): 756 ± 25 mg
- tumor weight (Colon 26; Colon 26, 3 mg/kg tail vein on day-4, 7 and 10): 677 ± 155 mg
- tumor weight (Colon 26; Colon 26, 10 mg/kg tail vein on day-4, 7 and 10): 726 ± 123 mg
